Experiment: Pharmacokinetic parameters for Orlistat evaluated after of oral administration of Orlistat capsules.
Format: ADME, organism-based
Conditions: human, in vivo, dosed compound id 42, dosed compound name ORLISTAT, tissue Plasma

- half-life: 1 to 2 h
- fraction unbound (read-out: Protein binding): 0.01 to 0.99
SMILES: CCCCCCCCCCC[C@@H](C[C@@H]1OC(=O)[C@H]1CCCCCC)OC(=O)[C@H](CC(C)C)NC=O [ORLISTAT]

Reference: ChEMBL document CHEMBL3832062, “DailyMed|setid=a9c47f08-bd02-4731-aaf7-42173155b2d0 | XENICAL- orlistat capsule|A-S Medication Solutions LLC”
